# Assays:
# [1] = system: histidine decarboxylase; experiment: Histidine decarboxylase activity of guinea-pig kidneys after in vivo administration; conditions: for Activity expressed in % inhibition of the enzyme: guinea-pig renal enzyme, sacrificed five hours after administration, vs control animals
# From the text: The activity of the compound 458 L was compared with that of tritoqualine, which is, to the Applicants' knowledge, the only product used therapeutically for this objective. The technique for measuring the histadine decarboxylase activity of guinea-pig kidneys has been described by B. Kosmicki et al (J. Pharmacol. Paris 1974-5-3-331-342). The guinea-pigs were sacrificed five hours after administering the substances under investigation. The percentage reduction in the activity of the renal enzyme of the treated animals was determined with respect to control animals.
# [2] = Acute toxicity (LD 50), oral route, mice; conditions: mouse, in vivo
# Protocol: (§1) The toxicity was determined in the conventional manner.
# [3] = system: mice; conditions: mouse, in vivo
# Protocol: as §1
SMILES,Activity expressed in % inhibition of the enzyme ([1]; dosage 10 mg/kg) [%],Activity expressed in % inhibition of the enzyme ([1]; dosage 20 mg/kg) [%],Activity expressed in % inhibition of the enzyme ([1]; dosage 40 mg/kg) [%],Activity expressed in % inhibition of the enzyme ([1]; dosage 60 mg/kg) [%],in vivo inhibition of histidine decarboxylase (in words) ([1]; in vivo),LD50 [2] [mg/kg],chronic toxicity (tolerance) [3]
"CCOc1c(N)c2c(c(OCC)c1OCC)C(C1c3c(cc(OC)c(OC)c3OC)CCN1C)OC2=O (centres unmarked) [458 L, 2-methyl-6,7,8-trimethoxy-1[4,5,6-triethoxy-7-amino-3-phthalidyl]-1,2,3,4-tetrahydro-isoquinoline]",14,21,31,41,inhibiting in vivo the action of the enzyme histidine decarboxylase,~6000,well tolerated
"CCOc1c(N)c2c(c(OCC)c1OCC)C(C1c3c(cc4c(c3OC)OCO4)CCN1C)OC2=O (centres unmarked) [Tritoqualine, tritoqualine, reference compound]",10,20,20,22,,,

# Source: patent publication US4302458A, “Phthalidyl-isoquinoline derivatives” (Laborec Laboratoire de Recherches Biologiques, priority 1979, dated 1981)
